In US10265419B2, “Intraoperative determination of nerve location” (Novadaq Technologies ULC, priority 2005, dated 2019):

Tests used:
cavernous nerves = experiment: NIRF imaging of cavernous nerves after intracrural ICG injection in rats; assay type: in vivo
Text: The area was examined for retrograde axonal transport at different time points, using a NIRF intraoperative imaging system (SPY®, Novadaq Technologies Inc., Mississauga, Ontario, Canada) that illuminates tissues with a 805 nm laser and captures images with a camera sensitive to infrared fluorescence. Near infrared microscopy and conventional histology were used to confirm the macroscopically identified fluorescent structures. […] (These were specific time points at which examinations were made. […] The fluorescent nerves were then excised.

[1] = cited from earlier work

In the case of `CC1(C)C(/C=C/C=C/C=C/C=C2\N(CCCCS(=O)(=O)O)c3ccc4ccccc4c3C2(C)C)=[N+](CCCCS(=O)(=O)[O-])c2ccc3ccccc3c21` [ICG, indocyanine green], the “time post-injection of highest fluorescence intensity” value (cavernous nerves; NIRF imaging) is given as 18 and at 24, the “fluorescence of the cavernous nerves at longer post-injection periods” value (cavernous nerves; e.g. 30 days post-injection) is given as “not detectable” and the “metabolism in the body” value ([1]; after intravenous injection) is given as “not metabolized in the body”. The route of excretion ([1]; after intravenous injection) was “excreted exclusively by the liver” and the “reabsorption from the intestine / enterohepatic recirculation” value ([1]; in vivo) was “not reabsorbed from the intestine and does not undergo enterohepatic recirculation”.
